The source of these data is patent US4239887A, “Pyridothienotriazines” (USV Pharmaceutical Corporation, priority 1979, dated 1980).

Test [1] relates to formation of a wheal (Rat Passive Cutaneous Anaphylaxis). In words: Rat Passive Cutaneous Anaphylaxis (PCA) Screen, inhibition of wheal formation. The format is in vivo. The settings on record: for ED50: oral (p.o.), rat PCA, read-out: ED50 (dose required to give 50% reduction in wheal size). From the text:
The compounds of this invention have potent activity in inhibiting the formation of a wheal when screened according to the Rat Passive Cutaneous Anaphylaxis Screen as is described by I. Mota, Life Sciences, 7, 465 (1963) and Z. Ovary, et al., Proceedings of Society of Experimental Biology and Medicine, 81, 584 (1952).
The activities are given as ED50 values, which are the doses required to give 50% reductions in wheal size.

Test [2] can be described thus: oral anti-allergy activity in standard tests. Type of test: in vivo. The settings on record: standard tests for anti-allergy activity.

In general, ED50 refers to the dose that gives a 50% effect, or the effect in half of the subjects. In the case of `Cc1cc(C)c2c(n1)sc1c(O)nnnc12` [7,9-diCH3, OH, 4-Hydroxy-7,9-dimethylpyrido[3',2':4,5]thieno[3,2-d]-1,2,3-triazine], the ED50 in test [1] was 5.6 mg/kg.
With `Oc1nnnc2c1sc1nc(-c3ccccc3)ccc12` [7-phenyl, OH, 4-Hydroxy-7-phenylpyrido[3',2':4,5]thieno[3,2-d]-1,2,3-triazine], in test [1], the ED50 came out at 0.74 mg/kg.
The same measure, in the same setting: as for `Cc1ccc2c(n1)sc1c(O)nnnc12` [7-CH3, OH, 4-Hydroxy-7-methylpyrido[3',2':4,5]thieno[3,2-d]-1,2,3-triazine], the figure is 6 mg/kg.
For `Oc1nnnc2c1sc1ncccc12` [4-Hydroxy-pyrido[3',2':4,5]thieno[3,2-d]-1,2,3-triazine, reference compound], the “inhibition of wheal size” value in test [1] (tested at 25 mg/kg, p.o.) worked out at 31%. Moreover, the “anti-allergy activity (in words)” value in test [2] is “essentially inactive”.
Regarding `Cc1ccc2c(n1)sc1cnnnc12` [7-CH3, H, 7-Methylpyrido[3',2':4,5]thieno[3,2-d]-1,2,3-triazine], in test [1], the ED50 came to 1 mg/kg.
